Laboratory results taken from patent publication US20220411397A1, “ANALOGUES OF N-ACYL-HOMOSERINE LACTONES AND PHARMACEUTICAL COMPOSITION COMPRISING SAME” (SORBONNE UNIVERSITE, priority 2019, published 2022).

Columns and labels:
Caco-2/TC7 cells = test: Stimulation of Caco-2/TC7 cells by IL-1β, IL-8 secretion (ELISA); assay type: cell-based, human
Source text: 1.1.1. The Caco-2/TC7 Cell Line • The Caco-2 cell line is derived from a human colon adenocarcinoma and represents a cell culture model of enterocytes lining the epithelium of the small intestinal. […] During the exponential growth phase (from seeding to confluence), the cells remain undifferentiated. At confluence, they can spontaneously (in the absence of differentiation inducers) differentiate and progressively polarize. The differentiation process, which is a growth-related mechanism, is maximal at the end of confluence (stationary phase of the growth curve). • The cells develop a brush border at the apical pole containing microvilli and with characteristic enterocytic enzymes, such as hydrolases. • In accordance with the published literature, the Caco-2/TC7 cells in our experiments were seeded at 10^5 cells/well (equivalent to 10-12×10^3 cells/cm^2) in 6-well plastic culture plates. The cells were maintained in a glucose-rich medium (high glucose in the DMEM GlutaMAX medium 4.5 g/I glucose) supplemented with 20% heat-inactivated foetal calf serum, 1% nonessential amino acids NEAA, and 1% penicillin streptomycin. The cells were grown at 37° C. in a 10% CO2/air atmosphere. The medium was changed every day. Under these conditions, the cells were confluent on day 6. On day 17, the cells were serum-starved, and were used on day 18.
1.2.1. Stimulation of Caco-2/TC7 with Cytokines • The Caco-2/TC7 cells were seeded in 6-well plates at 100,000 cells/well and grown for 18 days. On day 17, the cells were serum-starved, which means that the cell medium was replaced with a foetal calf serum-free medium, and used on day 18. • The stimulation medium was composed of a medium referred to as “starvation medium”, i.e. without foetal calf serum (DMEM GlutaMAX, 1% NEAA, 1% penicillin-streptomycin) with 100 μM of 2-HQ. The cells were incubated for 18 h at 37° C. with 2 ml of stimulation medium containing 0.1% DMSO (negative control) or stimulation medium containing the compounds tested at desired concentrations, with or without proinflammatory cytokines to induce an inflammation. To induce the inflammation, either the IL-1β at 25 ng/ml or the combination of TNF-α and IFN-γ at 50 ng/ml each were used. After 18 h, the supernatants were collected and stored at −80° C. before analysis by ELISA test. The cells were washed with 1 ml of PBS 1×/well, and lysed in 100 μl of PBS 1× containing 1% Triton X-100. The cells were harvested by scraping and stored at −80° C. before the quantification of the protein. The dosing of the LDH was performed immediately before freezing. • All the experiments on the cells were performed in triplicates.
1.2.4. Quantification of the Human Cytokines by ELISA • The levels of the proinflammatory cytokine IL-8 produced by the cells were determined in the cell supernatants and/or cell lysates using the commercially available IL-8 ELISA detection kit (Duoset Human C×CL8/IL-8, ref. DY208) provided by R & D Systems (Minneapolis, Minn., USA) according to the instructions of the manufacturer. • All the cytokine levels were first normalized to the protein content determined in the corresponding cell lysates. Then, to compare the experiments, they could be further normalized using the activated control condition (DMSO+cytokines) as the 100% response.

LasR receptor = biological target: T1, LasR receptor (Pseudomonas aeruginosa, UniProt P25084); test: Activation of the LasR receptor on bacterial reporter strain E. coli pSB1075 (bioluminescence); assay type: cell-based
T1 construct: expressed in transfected cells; host or cells: Escherichia coli carrying plasmid pSB1075
T1 sequence (P25084 whole entry): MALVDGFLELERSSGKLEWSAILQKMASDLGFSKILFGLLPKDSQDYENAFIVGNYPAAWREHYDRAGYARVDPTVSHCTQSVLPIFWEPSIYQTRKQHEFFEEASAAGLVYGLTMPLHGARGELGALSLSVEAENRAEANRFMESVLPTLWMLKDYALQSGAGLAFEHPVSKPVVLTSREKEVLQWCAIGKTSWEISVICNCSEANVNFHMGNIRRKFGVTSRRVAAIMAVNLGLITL
Source text: 1.1.3. The Bacterial Reporter Strain E. coli pSB1075 • A bacterial reporter strain of the Quorum Sensing was used to study the ability of the molecules to be recognized by the Pseudomonas aeruginosa AHL receptor (LasR) and induce an activation. […] This bioluminescent strain was modified by addition of a plasmid pSB1075. This plasmid contains genes encoding both tetracycline resistance and the expression of the LasR AHL receptor from the Pseudomonas aeruginosa bacteria, as well as a fusion gene derived from the LasR promoter and the luxCDABE gene from Photorhabdus luminescence. The bacterial strain was grown in the LB medium supplemented with 5 μg/ml tetracycline to exert a selection pressure and ensure that only the desired strain was amplified. The fusion gene included in the plasmid gives the bacteria the ability to emit a bioluminescence when the LasR receptor is activated, and provides the user with a robust test for the molecular screening. […] On day 1, the culture was diluted 1:100 (P1) in 10 ml of LB medium supplemented with 5 μg/ml tetracycline and maintained for 24 hours at 37° C. under stirring at 70 rpm. On day 2, the experiment took place: a bacterial suspension extemporaneously diluted 1:10 in LB medium supplemented with 5 μg/ml tetracycline (P2) was dispensed into a black opaque 96-well plate and incubated for 4 hours with a range of AHL concentrations or controls until the resulting luminescence was read at the end point. All experiments were performed in triplicates.
1.3. […] This bioluminescent strain was developed by the addition of a plasmid pSB1075 containing genes encoding the tetracycline resistance and the expression of the LasR AHL receptor, as well as a fusion gene of the LasR promoter and the luxCDABE gene of Photorhabdus luminescence. • On day 1, a 1/100 dilution of the bacterial strain (P1) was grown for 24 hours at 37° C. under stirring (70 rpm) in a LB medium containing 5 μg/ml tetracycline (pressure selective). On day 2, P1 was diluted 1:10 in the same medium to obtain P2. In a black 96-well plate were placed 200 μL of P2 and 10 μL of the short chain compound (medium, water and DMSO for the negative controls, C4-HSL as positive control, and the test sample at the desired concentration). The plate was incubated for 4 hours at 37° C. under stirring at 70 rpm. […] After that, the incubation was continued according to the conventional protocol, with the test compound at the desired concentrations.

SMILES	activity on IL-1β-stimulated Caco-2/TC7 cells compared with natural 3-oxo-C12 HSL (Caco-2/TC7 cells; 10-100 μM range)	EC50 (LasR receptor) [µM]	activity on IL-1β-stimulated Caco-2/TC7 cells compared with natural 3-oxo-C12 HSL (Caco-2/TC7 cells; 1-50 μM range)
CCCCCCCCCC(=O)CC(=O)Nc1cc(Cl)ccc1O [I-6, N-(5-chloro-2-hydroxyphenyl)-3-oxododecanamide]	a significantly higher activity than that of the natural 3-oxo-C12 HSL	> 1000	
CCCCCCCCCC(=O)CC(=O)N[C@H]1CCCC[C@H]1O [I-4, N-[(1S,2R)-2-hydroxycyclohexyl]-3-oxo-dodecanamide]		200	an activity equivalent to that of the natural 3-oxo-C12 HSL
CCCCCCCCCC(=O)CC(=O)N[C@H]1CCCC[C@@H]1O [I-2, N-[(1S,2S)-2-hydroxycyclohexyl]-3-oxo-dodecanamide]		0.165	an activity equivalent to that of the natural 3-oxo-C12 HSL
